Measured values reported in patent US5434247A, “Peptides for inducing monocyte cytotoxicity in diagnostics” (Board of Regents, The University of Texas System, priority 1992, dated 1995).
“Also recorded” adds a separate entry of the source. Read-outs that look alike come from different tables or passages of the source. *1 amine or outer side, *2 acyl side, *3 side chain or, on linkers, in order; H or OH if unused. Where a SMILES comes first, the peptide text is derived from it. Bridges are numbered along the chain shown (N, C = ends). Roman numbers before positions name the chains, in order. Where no end group is shown, it is not given here. [ ]: non-standard residue; d: D form. Actinocin(9to1) = Cc1c2oc3c(C)ccc(C(=O)[*:1])c3nc-2c(C(=O)[*:2])c(N)c1=O; NMeV = CN[C@H](C(=O)O)C(C)C; Sar = CNCC(=O)O

Tests used:
[1] = system: human monocytes / K562; assay: Human monocyte cytotoxicity assay (MCF assay), 111In-Ox labeled K562 targets; format: cell-based; conditions: for monocyte cytotoxicity inducing activity (in words) / concentration at which the peptide activates human blood monocytes for cytotoxicity: K562 target; for concentration at which the peptide activates human blood monocytes for cytotoxicity: purified peptide, monocytes of eight human donors
Experimental: FIG. 1. Hybrid cells were adjusted to 1×10^6 /ml and stimulated with 8 ug/ml PHA(+). […] to control (-) cultures, and both supernatants harvested by centrifugation. Monocyte cytotoxicity was measured as described herein with the exception that the monocyte monolayer was incubated overnight to allow for decay of NK cell activity. The monolayer was incubated for a second 24 hr period with dilutions of MCF containing supernatants. Dilutions represented are 1/4 in a total test volume of 0.2 ml. […] Microtiter plates were centrifuged 16 hrs later, and supernatants collected and counted. % specific release was calculated as described herein.
Only healthy volunteer donors were used. All volunteer donors signed an informed consent, and the protocol was approved by the Committee for the Protection of Human Subjects, University of Texas Health Science Center. Mononuclear cells were prepared by centrifugation over Ficoll/Hypaque. […] The monolayer was incubated overnight to allow for decay of residual natural killer activity before addition of lymphokine preparations on day 2.
The effector to target ratio was 30:1. […] After 18 hrs incubation of monocyte monolayer with target, the plates were centrifuged and supernatant was removed and cpms were counted in a Beckman Biogamma 2000. Specific release was calculated as described by Wiltrout, supra. […] Other tumor targets used were HL-60, L5178Y and TU5 (Table V).

[2] = system: FtF3 cells; assay: Effects of metabolic inhibitors and tunicamycin on MCF production; format: cell-based, human; conditions: for effect on MCF production of PHA-stimulated FtF3 cells: cells incubated 4 h with inhibitor (0 to 100 ug/ml), washed, PHA 24 h; for effect on MCF production of nonstimulated (non-PHA treated) cells: puromycin at doses of 10-50 ug/ml; for biological activity of MCF after biosynthesis in the presence of the agent: tunicamycin 0, 1, 2.5 or 5.0 ug/ml
Experimental: (§1) FIG. 2. FtF3 cells were incubated 4 h with various doses of actinomycin D. Cells were washed and stimulated with PHA for 24 h before harvesting supernatants by centrifugation, extensive dialysis, and bioassay.( ) One set of each dose of inhibitor-treated cells was labelled with ^3 H-uridine, stimulated, lysed and harvested 24 h later, and counted by liquid scintillation.(.quadrature.) Viability of FtF3 at 24 h was greater than 80% at all doses tested.
as §1, with “3.” for “2.”, “cycloheximide.” for “actinomycin D.”, “3 H-amino acids,” for “^3 H-uridine,”, “TCA-precipitated” for “lysed and harvested”
FIG. 4. FtF3 cells were incubated 4 h with various doses of puromycin. Cells were washed and resuspended either with ( ) or without (.quadrature.) PHA, and incubated 24 h before harvesting supernatants by centrifugation, extensive dialysis, and bioassay. Viability of FtF3 at 24 h was greater than 80% at all doses tested.
Urea treatment was accomplished by adding 3 grams of solid urea to 10 ml MCF (28.5 U/ml) (5M urea final). Extraction of MCF with butanol-diisopropyl ether was performed. FtF3 cells were cultured with 0, 1, 2.5 or 5.0 ug/ml tunicamycin. […] MCF supernatants were extracted with butanol-diisopropyl ether; the aqueous phase contained 36.7% less MCF than the control preparation.
FtF3 cells at a concentration of 1×10^6 /ml in RPMI 1640/10% FCS were incubated 4 hours with either actinomycin D, cycloheximide, or puromycin (all at 0 to 100 ug/ml, Sigma). Tests for viability after treatment were performed by trypan blue exclusion and supernatants were collected by centrifugation. In a second set of experiments FtF3 cells at the same concentration but using 0.1% human serum were incubated for 5 hours with either cycloheximide or puromycin. Uptake experiments were performed by adjusting FtF3 cells to 1×10^6 /ml in media after treatment with inhibitor, and adding either 5,6-^3 H-uridine (ICN Radiochemicals, Irvine, Calif., USA, […]) to actinomycin D treated cells or ^3 H L-amino acid mixture (25.5 mci/mg) to cycloheximide-treated cells at 1 uCi to 1×10^5 cells. Cells were subsequently lysed and counted by liquid scintillation.

[3] = Enzyme treatment of MCF supernatants; format: physicochemical; conditions: in contrast to MCF
Experimental: In order to treat MCF supernatants with enzymes, 10 ml of the supernatant (28.5 units/ml) were treated with 1 mg/ml trypsin at pH 7.4, 1 mg/ml chymotrypsin at pH 7.4, 0.5 mg/ml DNase at pH 7.4, or 40 units/ml RNase at pH 5 for 1 hour at 25° C. […] The experiments were repeated using insolubilized enzymes to minimize the possibility that enzymes could be carried over into the bioassay and could explain the results.

[4] = all doses tested, trypan blue exclusion

In the case of GAAVLENSQ [MJ-1], the “monocyte cytotoxicity inducing activity (in words)” value [1] is reported as “capable of inducing human monocyte cytotoxicity; also recorded: found to have biological MCF activity”, the “decrease in the biological activity of the peptide by the substitution, versus MJ-2” value ([1]; parallel assays, same human donors) is reported as about 3 log fold and the “concentration at which the peptide activates human blood monocytes for cytotoxicity” value [1] is reported as 10^-6 M.

In the case of `Cc1c2oc3c(C)ccc(C(=O)N[C@@H]4C(=O)N[C@H](C(C)C)C(=O)N5CCC[C@H]5C(=O)N(C)CC(=O)N(C)[C@@H](C(C)C)C(=O)O[C@@H]4C)c3nc-2c(C(=O)N[C@@H]2C(=O)N[C@H](C(C)C)C(=O)N3CCC[C@H]3C(=O)N(C)CC(=O)N(C)[C@@H](C(C)C)C(=O)O[C@@H]2C)c(N)c1=O` [actinomycin D] (I: T[dV]P[Sar][NMeV] / II: T[dV]P[Sar][NMeV]; ester I:1-I:C, II:1-II:C; linker I:N-II:N via Actinocin(9to1)), the “Viability of FtF3 at 24 h” value [2, 4] is reported as “greater than 80%”, the “effect on MCF production of PHA-stimulated FtF3 cells” value (from here on “effect … of PHA-stimulated FtF3 cells”) [2] is reported as “totally suppressed” and the “effect on MCF production of nonstimulated (non-PHA treated) cells” value (from here on “effect … (non-PHA treated) cells”) [2] is reported as “no effect”.

For IFN-α [reference compound], the “% specific lysis” value ([1]; cytokine added at 1 U/ml) was 4.5 ± 3.0%, the “% specific lysis” value ([1]; cytokine added at 10 U/ml) was -5.4 ± 9.2% and the “% specific lysis” value ([1]; cytokine added at 100 U/ml) was -2.1 ± 12.4%. The “% specific lysis” value ([1]; cytokine added at 1000 U/ml) was -8.9 ± 8.8%.

For `OCCS` [2-mercaptoethanol], the “biological activity of MCF after biosynthesis in the presence of the agent” value [2] was “no significant change”.

For Leu Glu Asp Ser Gln (LEDSQ) [MJ-5], the “monocyte cytotoxicity inducing activity (in words)” value [1] was “critical for biological activity”.

With tunicamycin the “biological activity of MCF after biosynthesis in the presence of the agent” value [2] was “no significant change”.

In the case of `COc1ccc(C[C@H](N)C(=O)N[C@H]2[C@@H](O)[C@H](n3cnc4c(N(C)C)ncnc43)O[C@@H]2CO)cc1` [puromycin], the “Viability of FtF3 at 24 h” value [2] is reported as “greater than 80%”, the “lectin-induced MCF production with inhibitor present for the entire incubation period” value [2] is reported as “suppressive in a dose-dependent manner” and the “effect … of PHA-stimulated FtF3 cells” value [2] is reported as “suppressed but did not totally abolish”. The “effect … (non-PHA treated) cells” value [2] was “appeared to stimulate”.

With `C[C@@H]1C[C@@H]([C@H](O)CC2CC(=O)NC(=O)C2)C(=O)[C@@H](C)C1` [cycloheximide] the “lectin-induced MCF production with inhibitor present for the entire incubation period” value [2] was “not suppressed”, the “Viability of FtF3 at 24 h” value [2, 4] was “greater than 80%” and the “effect … of PHA-stimulated FtF3 cells” value [2] was “suppressed but did not abolish”. The “effect … (non-PHA treated) cells” value [2] was “only a slight stimulatory effect”.

In the case of “rIL1β: recombinant IL 1 beta (Cistron Biotechnology) [reference compound]”, the “% specific lysis” value ([1]; cytokine added at 0.1 U/ml) is reported as -8.7 ± 2.8%, the “% specific lysis” value ([1]; cytokine added at 1 U/ml) is reported as -4.9 ± 4.6% and the “% specific lysis” value ([1]; cytokine added at 10 U/ml) is reported as -1.8 ± 9.6%.

In the case of “GM-CSF: recombinant GM-CSF [reference compound]”, the “% specific lysis” value ([1]; cytokine added at 50 U/ml) is reported as -2.5 ± 15.9%, the “% specific lysis” value ([1]; cytokine added at 100 U/ml) is reported as 5.7 ± 3.1% and the “% specific lysis” value ([1]; cytokine added at 200 U/ml) is reported as -0.6 ± 4.9%.

With “Gly Ala Ala Val Leu (GAAVL; printed: Gly Ala Ala Val Leu) [MJ-3, truncated five-mer, native 5 N-terminal amino acids of P29]” the “monocyte cytotoxicity inducing activity (in words)” value [1] was “not determined to be above the background for the assay”, the “monocyte cytotoxicity inducing activity (in words)” value ([1]; listed as MJ3) was “did not reliably exhibit biological activity” and the “specific release of label” value ([1]; one experiment, input of 10^2 mg of protein) was 25%.

For GAAVLEDSQ [MJ-2], the “monocyte cytotoxicity inducing activity (in words)” value [1] was “exhibits the same high level activity as the intact protein of 29kD; also recorded: capable of activating human blood monocytes for tumor cytotoxicity; also recorded: to a similar extent as the intact protein of 29kD” and the “concentration at which the peptide activates human blood monocytes for cytotoxicity” value [1] was “approximately 10^-9 M”.

B1: IFN-γ: human gamma interferon (protein, UniProt P01579 24-161, looked up)
Interferon gamma: QDPYVKEAENLKKYFNAGHSDVADNGTLFLGILKNWKEESDRKIMQSQIVSFYFKLFKNFKDDQSIQKSVETIKEDMNVKFFNSNKKKRDDFEKLTNYSVTDLNVQRKAIHELIQVMAELSPAAKTGKRKRSQMLFRG
In the case of B1, the “monocyte cytotoxicity inducing activity (in words)” value [1] is reported as “only slight activity”, the “increase in specific lysis” value ([1]; amounts up to 1000 U/ml final concentration) is reported as 6.2% and the “% specific lysis” value ([1]; cytokine added at 10 U/ml) is reported as -3.5 ± 1.1%. The “% specific lysis” value ([1]; cytokine added at 100 U/ml) was 3.4 ± 3.2%, the “% specific lysis” value ([1]; cytokine added at 1000 U/ml) was 6.2 ± 4.4% and the effect of trypsin [3] was “inactivated”.

B2: eIL1α: recombinant IL 1 alpha (Cistron Biotechnology) (protein, UniProt P01583 113-271, looked up)
Interleukin-1 alpha: SAPFSFLSNVKYNFMRIIKYEFILNDALNQSIIRANDQYLTAAALHNLDEAVKFDMGAYKSSKDDAKITVILRISKTQLYVTAQDEDQPVLLKEMPEIPKTITGSETNLLFFWETHGTKNYFTSVAHPNLFIATKQDYWVCLAGGPPSITDFQILENQA
In the case of B2, the “% specific lysis” value ([1]; cytokine added at 0.1 U/ml) is reported as -4.1 ± 4.1%, the “% specific lysis” value ([1]; cytokine added at 1 U/ml) is reported as -3.6 ± 5.6% and the “% specific lysis” value ([1]; cytokine added at 10 U/ml) is reported as -0.7 ± 7.6%.

B3: m-CSF: purified m-CSF (protein, UniProt P09603 33-554, looked up)
Macrophage colony-stimulating …: EEVSEYCSHMIGSGHLQSLQRLIDSQMETSCQITFEFVDQEQLKDPVCYLKKAFLLVQDIMEDTMRFRDNTPNAIAIVQLQELSLRLKSCFTKDYEEHDKACVRTFYETPLQLLEKVKNVFNETKNLLDKDWNIFSKNCNNSFAECSSQDVVTKPDCNCLYPKAIPSSDPASVSPHQPLAPSMAPVAGLTWEDSEGTEGSSLLPGEQPLHTVDPGSAKQRPPRSTCQSFEPPETPVVKDSTIGGSPQPRPSVGAFNPGMEDILDSAMGTNWVPEEASGEASEIPVPQGTELSPSRPGGGSMQTEPARPSNFLSASSPLPASAKGQQPADVTGTALPRVGPVRPTGQDWNHTPQKTDHPSALLRDPPEPGSPRISSLRPQGLSNPSTLSAQPQLSRSHSSGSVLPLGELEGRRSTRDRRSPAEPEGGPASEGAARPLPRFNSVPLTDTGHERQSEGSFSPQLQESVFHLLVPSVILVLLAVGGLLFYRWRRRSHQEPQRADSPLEQPEGSPLTQDDRQVELPV
With B3 the “% specific lysis” value ([1]; cytokine added at 17.3 U/ml) was 26.0 ± 6.5%, the “% specific lysis” value ([1]; cytokine added at 173 U/ml) was 14.5 ± 4.6% and the “% specific lysis” value ([1]; cytokine added at 1730 U/ml) was -3.9 ± 4.7%.
